Results: PubChem BioAssay (NCI)
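Exposure lasted 48 hours, with cells grown in 96-well plates and compounds tested at five concentrations. GI50 is the concentration that inhibits growth by half. TGI: total growth inhibition.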

Legend:
Assay in all cases: growth of human tumour cells (NCI), 48 h
786-0 renal = system: 786-0 renal
A498 renal = system: A498 renal
A549 NSCLC = system: A549 NSCLC
ACHN renal = system: ACHN renal
BT-549 breast = system: BT-549 breast
CAKI-1 renal = system: CAKI-1 renal
CCRF-CEM leukemia = system: CCRF-CEM leukemia
COLO 205 colon = system: COLO 205 colon
DU-145 prostate = system: DU-145 prostate
EKVX NSCLC = system: EKVX NSCLC
HCC-2998 colon = system: HCC-2998 colon
HCT-116 colon = system: HCT-116 colon
HCT-15 colon = system: HCT-15 colon
HL-60(TB) leukemia = system: HL-60(TB) leukemia
HOP-62 NSCLC = system: HOP-62 NSCLC
HOP-92 NSCLC = system: HOP-92 NSCLC
HS 578T breast = system: HS 578T breast
HT29 colon = system: HT29 colon
IGROV1 ovarian = system: IGROV1 ovarian
K-562 leukemia = system: K-562 leukemia
KM12 colon = system: KM12 colon
LOX IMVI melanoma = system: LOX IMVI melanoma
M14 melanoma = system: M14 melanoma
MALME-3M melanoma = system: MALME-3M melanoma
MCF7 breast = system: MCF7 breast
MDA-MB-231 breast = system: MDA-MB-231 breast
MDA-MB-435 = system: MDA-MB-435
MOLT-4 leukemia = system: MOLT-4 leukemia
NCI-H226 lung = system: NCI-H226 lung
NCI-H460 lung = system: NCI-H460 lung
NCI-H522 lung = system: NCI-H522 lung
NCI/ADR-RES ovarian = system: NCI/ADR-RES ovarian
OVCAR-4 ovarian = system: OVCAR-4 ovarian
OVCAR-5 ovarian = system: OVCAR-5 ovarian
OVCAR-8 ovarian = system: OVCAR-8 ovarian
PC-3 prostate = system: PC-3 prostate
RPMI-8226 leukemia = system: RPMI-8226 leukemia
RXF 393 renal = system: RXF 393 renal
SF-268 CNS = system: SF-268 CNS
SF-295 CNS = system: SF-295 CNS
SF-539 CNS = system: SF-539 CNS
SK-MEL-2 melanoma = system: SK-MEL-2 melanoma
SK-MEL-28 melanoma = system: SK-MEL-28 melanoma
SK-MEL-5 melanoma = system: SK-MEL-5 melanoma
SK-OV-3 ovarian = system: SK-OV-3 ovarian
SN12C renal = system: SN12C renal
SNB-19 CNS = system: SNB-19 CNS
SNB-75 CNS = system: SNB-75 CNS
SR leukemia = system: SR leukemia
SW-620 colon = system: SW-620 colon
T-47D breast = system: T-47D breast
TK-10 renal = system: TK-10 renal
U251 CNS = system: U251 CNS
UACC-257 melanoma = system: UACC-257 melanoma
UACC-62 melanoma = system: UACC-62 melanoma
UO-31 renal = system: UO-31 renal

SMILES: CN(C)CCN(C)c1ccc2ncc(C#Cc3cncc(C(=O)Nc4ccc(CN5CCN(C)CC5)c(C(F)(F)F)c4)c3)n2n1
- GI50 (786-0 renal): 6.9 µM
- TGI (786-0 renal): 13.5 µM
- GI50 (A498 renal): 6.05 µM
- TGI (A498 renal): 12.2 µM
- GI50 (A549 NSCLC): 0.947 µM
- TGI (A549 NSCLC): 2.15 µM
- GI50 (ACHN renal): 2.51 µM
- TGI (ACHN renal): 8.72 µM
- GI50 (BT-549 breast): 3.37 µM
- TGI (BT-549 breast): 9.44 µM
- GI50 (CAKI-1 renal): 4 µM
- TGI (CAKI-1 renal): 10.4 µM
- GI50 (CCRF-CEM leukemia): 1.08 µM
- TGI (CCRF-CEM leukemia): 2.91 µM
- GI50 (COLO 205 colon): 1.21 µM
- TGI (COLO 205 colon): 6.51 µM
- GI50 (DU-145 prostate): 3.54 µM
- TGI (DU-145 prostate): 9.9 µM
- GI50 (EKVX NSCLC): 4.81 µM
- TGI (EKVX NSCLC): 11.2 µM
- GI50 (HCC-2998 colon): 1 µM
- TGI (HCC-2998 colon): 2.08 µM
- GI50 (HCT-116 colon): 1.57 µM
- TGI (HCT-116 colon): 6.96 µM
- GI50 (HCT-15 colon): 1.14 µM
- TGI (HCT-15 colon): 3.14 µM
- GI50 (HL-60(TB) leukemia): 1.28 µM
- TGI (HL-60(TB) leukemia): 2.39 µM
- GI50 (HOP-62 NSCLC): 3.98 µM
- TGI (HOP-62 NSCLC): 10.4 µM
- GI50 (HOP-92 NSCLC): 1.71 µM
- TGI (HOP-92 NSCLC): 8.31 µM
- GI50 (HS 578T breast): 1.68 µM
- TGI (HS 578T breast): 9.75 µM
- GI50 (HT29 colon): 0.822 µM
- TGI (HT29 colon): 1.91 µM
- GI50 (IGROV1 ovarian): 1.59 µM
- TGI (IGROV1 ovarian): 5.7 µM
- GI50 (K-562 leukemia): 0.0227 µM
- TGI (K-562 leukemia): 0.787 µM
- GI50 (KM12 colon): 0.386 µM
- TGI (KM12 colon): 4.66 µM
- GI50 (LOX IMVI melanoma): 0.75 µM
- TGI (LOX IMVI melanoma): 1.42 µM
- GI50 (M14 melanoma): 0.854 µM
- TGI (M14 melanoma): 1.71 µM
- GI50 (MALME-3M melanoma): 2.7 µM
- TGI (MALME-3M melanoma): 9.71 µM
- GI50 (MCF7 breast): 0.564 µM
- TGI (MCF7 breast): 1.47 µM
- GI50 (MDA-MB-231 breast): 0.889 µM
- TGI (MDA-MB-231 breast): 2.17 µM
- GI50 (MDA-MB-435): 2.17 µM
- TGI (MDA-MB-435): 8.72 µM
- GI50 (MOLT-4 leukemia): 0.863 µM
- TGI (MOLT-4 leukemia): 2.62 µM
- GI50 (NCI-H226 lung): 1.23 µM
- TGI (NCI-H226 lung): 8.28 µM
- GI50 (NCI-H460 lung): 0.891 µM
- TGI (NCI-H460 lung): 1.69 µM
- GI50 (NCI-H522 lung): 5.08 µM
- TGI (NCI-H522 lung): 11.8 µM
- GI50 (NCI/ADR-RES ovarian): 2.13 µM
- TGI (NCI/ADR-RES ovarian): 7.8 µM
- GI50 (OVCAR-4 ovarian): 0.933 µM
- TGI (OVCAR-4 ovarian): 2.75 µM
- GI50 (OVCAR-5 ovarian): 6.21 µM
- TGI (OVCAR-5 ovarian): 12.9 µM
- GI50 (OVCAR-8 ovarian): 1.95 µM
- TGI (OVCAR-8 ovarian): 7.06 µM
- GI50 (PC-3 prostate): 5.07 µM
- TGI (PC-3 prostate): 11.2 µM
- GI50 (RPMI-8226 leukemia): 0.955 µM
- TGI (RPMI-8226 leukemia): 2.16 µM
- GI50 (RXF 393 renal): 0.876 µM
- TGI (RXF 393 renal): 1.63 µM
- GI50 (SF-268 CNS): 5.58 µM
- TGI (SF-268 CNS): 13.3 µM
- GI50 (SF-295 CNS): 0.801 µM
- TGI (SF-295 CNS): 1.76 µM
- GI50 (SF-539 CNS): 0.615 µM
- TGI (SF-539 CNS): 1.32 µM
- GI50 (SK-MEL-2 melanoma): 6.09 µM
- TGI (SK-MEL-2 melanoma): 12.5 µM
- GI50 (SK-MEL-28 melanoma): 7.58 µM
- TGI (SK-MEL-28 melanoma): 14.3 µM
- GI50 (SK-MEL-5 melanoma): 5.08 µM
- TGI (SK-MEL-5 melanoma): 10.9 µM
- GI50 (SK-OV-3 ovarian): 8.01 µM
- TGI (SK-OV-3 ovarian): 15 µM
- GI50 (SN12C renal): 2.23 µM
- TGI (SN12C renal): 7.79 µM
- GI50 (SNB-19 CNS): 4.75 µM
- TGI (SNB-19 CNS): 10.8 µM
- GI50 (SNB-75 CNS): 0.879 µM
- TGI (SNB-75 CNS): 6.57 µM
- GI50 (SR leukemia): 0.614 µM
- TGI (SR leukemia): 1.63 µM
- GI50 (SW-620 colon): 0.949 µM
- TGI (SW-620 colon): 2.27 µM
- GI50 (T-47D breast): 7.83 µM
- TGI (T-47D breast): 15.5 µM
- GI50 (TK-10 renal): 12.1 µM
- TGI (TK-10 renal): 19.5 µM
- GI50 (U251 CNS): 0.883 µM
- TGI (U251 CNS): 1.78 µM
- GI50 (UACC-257 melanoma): 6.04 µM
- TGI (UACC-257 melanoma): 12.3 µM
- GI50 (UACC-62 melanoma): 8.21 µM
- TGI (UACC-62 melanoma): 15.7 µM
- GI50 (UO-31 renal): 6.05 µM
- TGI (UO-31 renal): 12.4 µM
